Columns and labels:
[1] = target: T1, Porcine ventricle myofibrils (ventricular myosin ATPase) (Sus scrofa, UniProt P79293); experiment: Myofibril ATPase assay, porcine ventricle myofibrils; type: biochemical, porcine (Yucatan minipigs); conditions: porcine ventricle myofibrils
T1 construct: Myofibrils from porcine cardiac muscle was isolated from the left ventricle of Yucatan minipigs; tissue Exemplar Genetics; host or cells: left ventricle of Yucatan minipigs, myofibrils prepared in house
Outline: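 In a coupled enzyme format, ADP from myofibril ATPase drives NADH oxidation, monitored kinetically at 340 nm for 75 min using minipig ventricle myofibrils. Effective concentrations giving 25% loss or gain of activity relative to vehicle were calculated from 4-parameter fits.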

[2] = system: Rabbit Psoas myofibrils (skeletal myosin ATPase); experiment: Myofibril ATPase assay, rabbit psoas (skeletal) myofibrils; type: biochemical; conditions: rabbit psoas myofibrils
Outline: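 Values are concentrations giving 75% (Y75) or 125% (Y125) of vehicle ATPase activity, from 4-parameter logistic fits of normalized rates. Rates came from linear regression of A340 over 75 min, NADH oxidation coupled to ADP via PK-LDH. Enzyme source: skeletal myofibrils from rabbit psoas, pH 7.0 pCa buffer.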

[3] = system: Porcine atria myofibrils (atrial myosin ATPase); experiment: Myofibril ATPase assay, porcine atria myofibrils; type: biochemical; conditions: porcine atria myofibrils
Outline: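 Y75 (25% inhibition) or Y125 (activation) values come from 4-parameter logistic fits of vehicle-normalized rates. Rates are linear-regression slopes of NADH absorbance at 340 nm, read kinetically over 75 min, with ADP coupled to NADH oxidation via pyruvate kinase/lactate dehydrogenase.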

[4] = Y75 value (75% activity relative to no compound)

T1 sequence (P79293 whole entry): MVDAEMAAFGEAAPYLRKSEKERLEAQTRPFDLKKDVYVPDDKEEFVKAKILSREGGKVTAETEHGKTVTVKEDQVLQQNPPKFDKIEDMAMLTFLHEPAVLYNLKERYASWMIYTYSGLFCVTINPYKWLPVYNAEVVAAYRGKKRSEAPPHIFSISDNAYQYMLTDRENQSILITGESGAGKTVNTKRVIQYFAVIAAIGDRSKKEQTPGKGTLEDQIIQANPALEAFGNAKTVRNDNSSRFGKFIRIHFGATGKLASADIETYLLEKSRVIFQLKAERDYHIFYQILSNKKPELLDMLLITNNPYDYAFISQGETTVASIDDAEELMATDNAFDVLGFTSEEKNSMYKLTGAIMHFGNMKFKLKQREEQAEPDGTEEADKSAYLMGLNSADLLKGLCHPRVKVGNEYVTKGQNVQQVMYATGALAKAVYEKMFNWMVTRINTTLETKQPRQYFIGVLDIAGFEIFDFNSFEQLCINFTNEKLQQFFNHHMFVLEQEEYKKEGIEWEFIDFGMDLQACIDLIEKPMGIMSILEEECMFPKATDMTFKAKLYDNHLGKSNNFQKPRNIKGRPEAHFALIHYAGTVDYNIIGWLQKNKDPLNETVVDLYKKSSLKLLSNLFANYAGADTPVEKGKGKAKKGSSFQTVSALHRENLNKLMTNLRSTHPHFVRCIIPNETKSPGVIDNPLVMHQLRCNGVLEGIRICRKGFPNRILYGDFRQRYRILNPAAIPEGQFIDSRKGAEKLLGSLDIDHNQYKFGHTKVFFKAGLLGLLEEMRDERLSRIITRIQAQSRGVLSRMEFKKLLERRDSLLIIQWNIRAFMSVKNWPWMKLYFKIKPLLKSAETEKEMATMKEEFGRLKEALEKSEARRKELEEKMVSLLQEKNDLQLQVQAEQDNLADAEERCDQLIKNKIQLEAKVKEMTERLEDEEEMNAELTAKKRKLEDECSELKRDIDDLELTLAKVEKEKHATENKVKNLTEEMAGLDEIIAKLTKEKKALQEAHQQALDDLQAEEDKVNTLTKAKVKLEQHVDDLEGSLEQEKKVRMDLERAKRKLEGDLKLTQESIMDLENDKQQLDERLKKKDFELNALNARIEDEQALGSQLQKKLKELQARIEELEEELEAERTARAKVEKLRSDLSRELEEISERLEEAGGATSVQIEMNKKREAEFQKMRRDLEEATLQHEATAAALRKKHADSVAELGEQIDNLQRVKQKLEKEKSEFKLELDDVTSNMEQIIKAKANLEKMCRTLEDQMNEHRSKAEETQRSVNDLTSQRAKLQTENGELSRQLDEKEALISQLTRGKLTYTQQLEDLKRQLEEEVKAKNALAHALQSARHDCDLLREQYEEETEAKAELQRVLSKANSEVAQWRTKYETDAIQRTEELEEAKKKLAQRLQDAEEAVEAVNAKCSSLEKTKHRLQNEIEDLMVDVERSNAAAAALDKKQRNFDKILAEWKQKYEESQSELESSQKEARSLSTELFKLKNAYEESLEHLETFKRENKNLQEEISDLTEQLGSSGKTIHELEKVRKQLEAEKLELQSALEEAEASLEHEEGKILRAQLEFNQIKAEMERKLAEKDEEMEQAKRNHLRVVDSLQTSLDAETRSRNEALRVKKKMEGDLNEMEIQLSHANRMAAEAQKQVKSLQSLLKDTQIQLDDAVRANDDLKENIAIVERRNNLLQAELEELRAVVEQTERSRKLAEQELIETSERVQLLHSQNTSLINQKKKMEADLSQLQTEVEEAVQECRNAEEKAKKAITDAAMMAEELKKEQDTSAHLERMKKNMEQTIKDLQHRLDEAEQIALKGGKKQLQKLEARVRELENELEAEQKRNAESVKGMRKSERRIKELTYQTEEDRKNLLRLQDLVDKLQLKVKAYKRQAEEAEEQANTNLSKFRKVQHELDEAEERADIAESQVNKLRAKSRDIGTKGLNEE

Ventricular EC25 ([1]; Y75 value (no ‡ mark)) [µM] | Skeletal EC25 ([2]; Y75 value (no ‡ mark)) [µM] | Atrial EC25 ([3]; Y75 value (no ‡ mark)) [µM] | Ventricular EC25 ([1]; Y75 value) [µM] | Skeletal EC25 ([2]; Y75 value) [µM] | Atrial EC25 [3, 4] [µM] | Atrial EC25 ([3]; ‡ Y125 value, not a Y75 value (125% activity relative to no compound)) | SMILES
0.02 | 0.00 | 0.02 |  |  |  |  | Cc1c(CC(=O)N[C@@H](C)c2ncc(C#N)cc2F)c(=O)[nH]c2ccc(F)c(C(F)(F)F)c12 [compound 22]
0.60 | 0.16 | 0.43 |  |  |  |  | Cc1c(CC(=O)N[C@H](C)c2ncc(C#N)cc2F)c(=O)[nH]c2ccc(F)c(Cl)c12 (single isomer, unassigned) [compound 2051]
 |  |  | 100.00 | 1.29 | 78.18 |  | Cc1c(CC(=O)N[C@@H](c2ccc(F)cc2F)C(C)(C)O)c(=O)[nH]c2ccnc(C#N)c12 (single isomer, unassigned) [compound 279]
 |  |  | 100.00 | 100.00 | 100.00 |  | Cc1nccc2[nH]c(=O)c(CC(=O)N[C@@H](C)c3cccnc3)c(C)c12 (single isomer, unassigned) [compound 323]
 |  |  | 0.16 | 0.02 | 0.28 |  | Cc1c(CC(=O)N[C@@H](C)c2ncc(C#N)cc2F)c(=O)[nH]c2ccnc(C#N)c12 (single isomer, unassigned) [compound 285]
 |  |  | 6.56 | 0.61 | 0.96 |  | C[C@H](NC(=O)Cc1c(C2CC2)c2cnccc2[nH]c1=O)c1ncc(C#N)cc1F [compound 143]
 |  |  | 0.57 | 0.26 | 1.00 |  | Cc1cc(C#N)nnc1[C@@H](C)NC(=O)Cc1c(C)c2c(C)nccc2[nH]c1=O [compound 489]
0.12 | 0.02 | 0.24 |  |  |  |  | Cc1c(CC(=O)N[C@@H](C)c2ccc(C#N)cn2)c(=O)[nH]c2ccc(F)c(F)c12 [compound 46]
 |  |  | 100.00 | 0.27 | 7.58 |  | Cc1c(CC(=O)N[C@H](C)c2ncc(C#N)cc2F)c(=O)[nH]c2ccnc(C(F)(F)F)c12 (single isomer, unassigned) [compound 226]
42.07 | 100.00 | 6.41 |  |  |  |  | Cc1cc(C#N)ccc1[C@H](C)NC(=O)Cc1c(O)c2cc(F)c(F)cc2[nH]c1=O [compound 1089]
0.26 | 0.11 | 0.06 |  |  |  |  | Cc1c(CC(=O)N[C@H](C)c2ncc(C#N)cn2)c(=O)[nH]c2ccc(F)c(Cl)c12 (single isomer, unassigned) [compound 2055]
1.18 | 0.22 | 0.48 |  |  |  |  | Cc1c(CC(=O)N[C@H](C)c2ccc(C#N)nn2)c(=O)[nH]c2ccc(F)cc12 [compound 1119]
0.21 | 0.03 | 0.06 |  |  |  |  | Cc1c([C@H](C)C(=O)N[C@@H](C)c2ncc(C#N)cc2F)c(=O)[nH]c2ccc(F)c(F)c12 (single isomer, unassigned) [compound 2603]
0.40 | 0.06 | 0.23 |  |  |  |  | Cc1c(CC(=O)N[C@H](C)c2ncc(C#N)cc2F)c(=O)[nH]c2cccc(F)c12 [compound 51]
0.15 | 0.02 | 0.17 |  |  |  |  | Cc1c(C(F)(F)C(=O)N[C@@H](C)c2ncc(C#N)cc2F)c(=O)[nH]c2ccc(F)c(C#N)c12 (single isomer, unassigned) [compound 4836]
 |  |  | 4.94 | 1.15 | 12.56 |  | C#Cc1nccc2[nH]c(=O)c(CC(=O)N[C@@H](C)c3cnc(N=[N+]=[N-])cc3C)c(C)c12 [compound 488]
 |  |  | 62.81 | 1.24 | 6.06 |  | Cc1c(CC(=O)N[C@H](C)c2ccc(C#N)cn2)c(=O)[nH]c2ccnc(C(F)(F)F)c12 [compound 155]
1.62 | 0.34 | 0.43 |  |  |  |  | Cc1c(C(F)(F)C(=O)N[C@H](C)c2ncc(C#N)cn2)c(=O)[nH]c2ccc(F)c(C(F)(F)F)c12 (single isomer, unassigned) [Compound 2513]

More lines, now with the values behind:

SMILES | Ventricular EC25 ([1]; Y75 value (no ‡ mark)) [µM] | Skeletal EC25 ([2]; Y75 value (no ‡ mark)) [µM] | Atrial EC25 ([3]; Y75 value (no ‡ mark)) [µM] | Ventricular EC25 ([1]; Y75 value) [µM] | Skeletal EC25 ([2]; Y75 value) [µM] | Atrial EC25 [3, 4] [µM] | Atrial EC25 ([3]; ‡ Y125 value, not a Y75 value (125% activity relative to no compound))
C[C@H](NC(=O)Cc1cc2cc(C3CC3)ccc2[nH]c1=O)c1ccc(F)cc1F [compound 117] | 100.00 | 6.32 | 100.00 |  |  |  | 
Cc1nccc2[nH]c(=O)c(CC(=O)N[C@H]3c4c(F)cc(F)cc4OC3(C)C)c(C)c12 (single isomer, unassigned) [compound 189] |  |  |  | 13.14 | 0.87 | 1.22 | 
Cc1c([C@@H](C)C(=O)N[C@@H](C)c2ccc(F)cc2F)c(=O)[nH]c2ccnc(Cl)c12 (single isomer, unassigned) [compound 365] |  |  |  | 0.92 | 0.03 | 0.18 | 
C[C@@H](NC(=O)C(F)(F)c1cc2cc(F)ccc2[nH]c1=O)c1nccc(C#N)n1 (single isomer, unassigned) [compound 2559] | 100.00 | 100.00 | 100.00 |  |  |  | 
COc1ccc2[nH]c(=O)c(CC(=O)N[C@@H](C)c3ccc(F)cc3F)cc2c1 [compound 124] | 100.00 | 42.44 | 100.00 |  |  |  | 
Cc1nccc2[nH]c(=O)c(CC(=O)N[C@@H]3c4c(F)cc(F)cc4OC3(C)C)c(C)c12 (single isomer, unassigned) [compound 190] |  |  |  | 45.62 | 100.00 | 8.11 | 
Cc1nccc2[nH]c(=O)c(CC(=O)N[C@@H]3COc4cc(F)cc(F)c43)c(C)c12 (single isomer, unassigned) [compound 288] |  |  |  | 0.27 | 0.02 | 0.08 | 
C[C@H](NC(=O)Cc1cc2c(C#N)nccc2[nH]c1=O)c1ccc(C#N)cn1 [compound 473] |  |  |  | 6.63 | 0.30 | 1.44 | 
Cc1c(C2(C(=O)N[C@@H](C)c3cc(C#N)ccn3)CC2)c(=O)[nH]c2ccc(F)c(F)c12 (single isomer, unassigned) [compound 2540] | 100.00 | 0.96 |  |  |  |  | 100.00‡ μM
C[C@H](NC(=O)C(F)(F)c1cc2c(F)c(F)ccc2[nH]c1=O)c1nccc(C#N)n1 (single isomer, unassigned) [compound 2562] | 0.75 | 0.28 | 0.15 |  |  |  | 
Cc1c(C2(C(=O)N[C@H]3CCc4cc(C#N)cnc43)CC2)c(=O)[nH]c2ccc(F)c(F)c12 (single isomer, unassigned) [compound 4804] | 100.00 | 100.00 | 4.71 |  |  |  | 
Cc1nccc2[nH]c(=O)c(CC(=O)N[C@H]3COc4cc(C#N)cc(F)c43)c(C)c12 (single isomer, unassigned) [compound 178] |  |  |  | 20.24 | 1.84 | 4.55 | 
Cc1ccccc1[C@@H](CO)NC(=O)Cc1c(C)c2c(C)nccc2[nH]c1=O (single isomer, unassigned) [compound 337] |  |  |  | 100.00 | 100.00 | 100.00 | 
C[C@H](NC(=O)Cc1cc2cc(F)c(F)cc2[nH]c1=O)c1cnc(C#N)nc1 [compound 1075] | 15.41 | 8.39 | 16.51 |  |  |  | 
Cc1nccc2[nH]c(=O)c(CC(=O)N[C@@H](C)c3ccc(F)cc3F)c(F)c12 [compound 150] |  |  |  | 0.68 | 0.09 | 0.06 | 
Cc1c(C(F)(F)C(=O)N[C@H](C)c2ncc(C#N)cc2F)c(=O)[nH]c2cccc(C#N)c12 (single isomer, unassigned) [compound 2501] | 0.45 | 0.15 | 0.17 |  |  |  | 
Cc1c(C(F)(F)C(=O)N[C@@H](CO)c2ncc(C#N)cc2F)c(=O)[nH]c2ccnc(C#N)c12 (single isomer, unassigned) [compound 3504] |  |  |  | 4.90 | 1.04 | 0.77 | 
COc1cccc([C@@H](C)NC(=O)Cc2c(C)c3c(C)nccc3[nH]c2=O)n1 (single isomer, unassigned) [compound 309] |  |  |  | 100.00 | 100.00 | 100.00 | 
Cc1c(F)ccc2[nH]c(=O)c(C(F)(F)C(=O)N[C@H](C)c3ncc(C#N)cc3F)c(C#N)c12 (single isomer, unassigned) [compound 2519] | 1.19 | 0.52 | 0.31 |  |  |  | 

From patent US12448369B2 (Edgewise Therapeutics, Inc., priority 2023, dated 2025)
